Results from patent US8350062B2, “Synthesis and anticancer activity of new actin-targeting small-molecule agents” (priority 2009, dated 2013).

Tests used:
M14 = assay: NCI 60 cell line single dose screen; type: cell-based, human; settings: M14 (Melanoma), 10 micromolar, 48 h
Text: (§1) Analog 10 was screened utilizing 60 different human tumor cell lines, representing leukemia, melanoma and cancers of the lung, colon, brain, ovary, breast, prostate, and kidney in order to show selective growth inhibition or cell killing of particular tumor cell lines. This screen is unique in that the complexity of a 60 cell line dose response produced by a given compound results in a biological response pattern which can be utilized in pattern recognition algorithms (COMPARE program. See: http://dtp.nci.nih.gov/docs/compare/compare.html). Using these algorithms, it is possible to assign a putative mechanism of action to a test compound, or to determine that the response pattern is unique and not similar to that of any of the standard prototype compounds included in the NCI database. In addition, following characterization of various cellular molecular targets in the 60 cell lines, it may be possible to select compounds most likely to interact with a specific molecular target.
(§2) The screening is a two-stage process, beginning with the evaluation of the compound against the 60 cell lines at a single dose of 10 uM.
(§3) The human tumor cell lines of the cancer screening panel are grown in RPMI 1640 medium containing 5% fetal bovine serum and 2 mM L-glutamine. For a typical screening experiment, cells are inoculated into 96 well microtiter plates in 100 μL at plating densities ranging from 5,000 to 40,000 cells/well depending on the doubling time of individual cell lines. After cell inoculation, the microtiter plates are incubated at 37° C., 5% CO2, 95% air and 100% relative humidity for 24 h prior to addition of experimental drug.
(§4) After 24 h, two plates of each cell line are fixed in situ with TCA, to represent a measurement of the cell population for each cell line at the time of drug addition (Tz). Experimental drugs are solubilized in dimethyl sulfoxide at 400-fold the desired final maximum test concentration and stored frozen prior to use. At the time of drug addition, an aliquot of frozen concentrate is thawed and diluted to twice the desired final maximum test concentration with complete medium containing 50 μg/ml gentamicin.
(§5) Following drug addition, the plates are incubated for an additional 48 h at 37° C., 5% CO2, 95% air, and 100% relative humidity. For adherent cells, the assay is terminated by the addition of cold TCA. Cells are fixed in situ by the gentle addition of […] of cold 50% (w/v) TCA (final concentration, 10% TCA) and incubated for 60 minutes at 4° C. The supernatant is discarded, and the plates are washed five times with tap water and air dried. Sulforhodamine B (SRB) solution (100 μl) at 0.4% (w/v) in 1% acetic acid is added to each well, and plates are incubated for 10 minutes at room temperature. After staining, unbound dye is removed by washing five times with 1% acetic acid and the plates are air dried. Bound stain is subsequently solubilized with 10 mM trizma base, and the absorbance is read on an automated plate reader at a wavelength of 515 nm. For suspension cells, the methodology is the same except that the assay is terminated by fixing settled cells at the bottom of the wells by gently adding 50 μl of 80% TCA (final concentration, 16% TCA). Using the absorbance measurements [time zero, (Tz), control growth, (C), and test growth in the presence of drug (Ti)], the percentage growth is calculated.

PC-3 = assay: NCI 60 cell line single dose screen; type: cell-based, human; settings: PC-3 (Prostate Cancer), 10 micromolar, 48 h
Text: as §1, §2, §3, §4, §5

MDA-MB-231/ATCC = assay: NCI 60 cell line single dose screen; type: cell-based, human; settings: MDA-MB-231/ATCC (Breast Cancer), 10 micromolar, 48 h
Text: as §1, §2, §3, §4, §5

[1] = Single dose i.p. toxicity in mice; type: in vivo; settings: daily weight and behavior
Protocol: Initially, we established that 10 had no observed toxicity in mice up to 50 mg/kg a single dose administered i.p. Toxicity was assessed by daily weight measurements and mouse behavior compared to non-injected mice. Next, we established tumor xenografts by injecting A549 cells subcutaneously into two groups of nude athymic mice (6 animals per group). The first group was injected only with DMSO control. The second group of animals received three i.p. doses of analog 10 (20 mg/kg) on the 3rd, 5th and 7th day after the initial tumor challenge. Tumor growth was monitored over a period of five weeks. The tumor grew rapidly in the control mice population and reached an average size of 731 mm^3 at the end of 4 weeks. […] The average tumor size for this population was 308 mm^3 after 4 weeks.

[2] = tested on: F-actin in DU145 prostate cancer cell line; assay: F-actin depolymerization in DU145 prostate cancer cell line; type: cell-based, human
Text: We also examined the ability of 10 to depolymerize F-actin in live cells. The actin cytoskeleton can be readily visualized by fluorescent microscopy following Alexa Fluor 488 phalloidin staining.

A549 cells = assay: Cell viability assay (CellTiter-Glo), growth inhibition of A549 cells; type: cell-based, human; settings: 24-96 h
Protocol: Cell Viability Assays. All assays were performed using at least three replicate wells for each concentration tested. Original 10-25 mM DMSO stock solution of bistramide A or its analogs was diluted to 100 μM for analogs 4-8, 10 μM for analog 3, 5 μM for analog 2 and 1 μM for bistramide A (1) with F-12K cell culture media supplemented with 10% fetal bovine serum, 100 I.U./ml penicillin, 100 μg/ml streptomycin and 2 mM L-glutamine. Two-fold serial dilutions were performed and used for cell-based assays. A549 cells were grown in 96-well white plates at the density of 1,000 cells per well in 100 μl F-12K cell culture media. Cells were allowed to attach over 24 h and treated with 30 μl of the drug solution and incubated further for 48 h. After incubation, cell viability was determined using luminescence-based commercial kit (CellTiter-Glo, Promega) and luminescence measured using a Wallac Victor 3 plate reader. To measure cell growth inhibition, viability assays were performed twice: at initial time point T0 and after 48 h incubation (T48). Change in the number of viable cells was measured, and GI50 was calculated from sigmoidal plots. For analog 10, growth of A549 and PC3 cells was monitored over 96 h following addition of the drug. 100 μM was the highest concentration tested. At no point did the total DMSO conc. exceed 1%.

[3] = tested on: 60 different human tumor cell lines; assay: NCI 60 cell line single dose screen, whole panel; type: cell-based; settings: 10 micromolar, mean over cell lines
Text: as §1, with “In addition, following characterization of various cellular molecular targets in the 60 cell lines, it may be possible to select compounds most likely to interact with a specific molecular target.” left out
Following drug addition, the plates are incubated for an additional 48 h at 37° C., 5% CO2, 95% air, and 100% relative humidity. […] Bound stain is subsequently solubilized with 10 mM trizma base, and the absorbance is read on an automated plate reader at a wavelength of 515 nm. […] Using the absorbance measurements [time zero, (Tz), control growth, (C), and test growth in the presence of drug (Ti)], the percentage growth is calculated.

G-actin = biological target: T1, G-actin (Oryctolagus cuniculus, UniProt P68135); assay: Isothermal titration calorimetry, binding to monomeric actin; design: species or system rabbit; settings: isothermal titration calorimetry, 25° C.; read-out: Kd
T1 construct: Actin was purified from rabbit muscle acetone powder; tissue Pel-Freez Biologicals (acetone powder); host or cells: rabbit muscle acetone powder
Protocol: Isothermal Titration Calorimetry. A solution of rabbit skeletal muscle actin (5-10 μM) was titrated with bistramide A or its analog (50-100 μM) at 25° C. in buffer containing 2 mM Tris HCl, pH 8.0, 0.2 mM CaCl2, 0.01% NaN3, 0.2 mM ATP, 0.2 mM 2-mercaptoethanol. Dissociation constants were calculated from the binding curve using Origin analytical software (OriginLab) with the binding model involving a single set of identical sites

HL-60(TB) = assay: NCI 60 cell line single dose screen; type: cell-based, human; settings: HL-60(TB) (Leukemia), 10 micromolar, 48 h

COCCC(=O)NC[C@H](O)[C@H](C)C(=O)NCCC[C@H]1O[C@@]2(CCC[C@@H](CC[C@H](C)/C=C(\C)[C@H](C)O)O2)CCC1C (stereo partly drawn) [Analog 10]
Growth Percent (M14): 71.74% | Growth Percent (PC-3): 66.25% | Growth Percent (MDA-MB-231/ATCC): 43.18% | dose with no observed toxicity [1]: up to 50 mg/kg | F-actin depolymerization in DU145 cells [2]: A similar effect of 10 on F-actin depolymerization was also observed | concentration giving complete growth inhibition (A549 cells): 5 µM | Growth Percent, Mean [3]: 50.03% | Kd (G-actin): 9 nM | Growth Percent (HL-60(TB)): 51.51%
